In paper PMC9436819 (JACC: Basic to Translational Science, 2022):
Several values for one entry are separate records, joined by “and”; a condition that tells them apart may be missing. Equal entries are not always repeated. Where two headings read alike, the source gives them in different places.

What was measured:
healthy adults = experiment: Echocardiography (core laboratory) pharmacodynamics, SAD cohorts; type: in vivo, human
Procedure: For PD assessments of LVEF, echocardiograms for the SAD and MAD cohorts were interpreted by the echocardiography core laboratory and used for all data analysis and dose-level review decisions, and immediate local interpretation of the echocardiograms was performed for safety monitoring. […] Echocardiograms on day 3 (48 hours after dosing) were obtained only if the 24-hour LVEF had not returned to near or above baseline, as determined by the investigator. In the MAD cohorts, echocardiograms were obtained on day -1; predose on day 1; at 1.5 hours postdose on days 2, 4, and 9; and at 1.5, 24, and 72 hours postdose on day 14 (for the 5-mg and 10-mg cohorts) or on day 17 (for the 7.5-mg cohort). Echocardiograms were obtained 3 days after the last dose (on day 17 or 20) only if the participant’s prior LVEF was not near or above baseline, as determined by the investigator.
Using echocardiography instrumentation certified for clinical use, echocardiographic images were obtained from standard views based on American Society of Echocardiography recommendations for chamber quantification.[19] To obtain the LVEF, the endocardial borders of 3 different cardiac cycles were traced at both end diastole and end systole from the apical 4- and 2-chamber views and LV end-diastolic volume (LVEDV) and LV end-systolic volume (LVESV), calculated using the Simpson’s method of discs algorithm. Ejection fraction was calculated in the standard manner: LVEF = (LVEDV − LVESV)/LVEDV. The intraobserver variability (coefficient of variation) for LVEF was 8%.
All participants who received ≥1 dose of the study drug and had ≥1 predose and ≥1 postdose echocardiographic measurements were included in the PD analysis set. […] Descriptive statistics of the echocardiographic parameters were generated using SAS, version 9.3 or higher. Dose-response analysis was performed using analysis of covariance to identify the least-squares mean difference (aficamten minus placebo), as described in the Supplemental Appendix. Analyses of concentration “bin” and exposure-response were also performed using analysis of covariance, as described in the Supplemental Appendix. SAS PROC MIXED was used for all comparative analyses.
Statistical A nalysis of P harmacodynamic (PD) P aram eters
To analyze the impact of drug dose on echocardiographic parameters in the SAD and MAD
cohorts, an inferential analysis was conducted on t he PD analysis set using linear mixed models
for rep eated -measur es an alysis of covarian ce ( AN COVA). The A NCOVA used baseline valu e as
a covariate, included treatment, time-point, and time-point-by- treatment interaction as fixed
effects, and ch ange f rom baseline as the d ependent variable. Th e unstructur ed varian ce-
covarian ce structu re w as used, and the model acco unted for the time- point r epeated m easur es.
The ANCOVA analysis was conducted separately for each study part and f or each PD p aram eter .
The least-squares means, the difference in least squares means (active minus placebo), and the
associated 2-sided 95% CIs were presented for each comparison.
Concentration bin analysis
An additional inferential analysis was performed i n the SAD and MAD cohorts , to evaluate the
analysis set. A concentrat ion bin ANCOVA was conducted using linear mi xed models for
repeat ed-measures an aly ses with concentr ation bin group as a fix ed ef fect, baseline PD
parameters as a covari ate, change f rom baseline as the dependent v ariable, and a random
intercept to adjust for the repeat ed measures. The unstructured variance-co variance structur e was
used.Plasma concentr ations of aficamten wer e paired with coincident PD parameters. The
ANCOVA compared the change in PD parameters between each bin versus the pooled placebo
group. The least-squ ares means, the differen ce in l east squares m eans (bin group minus placebo),
and the associat ed 2-sided 95% CIs were pres ented for each comparison. The ANCOVA analysis

[1] = Plasma pharmacokinetics after multiple oral doses (MAD cohorts); type: in vivo, human; conditions: for AUC / Cmax / Tmax / half-life: human, plasma, oral; for AUC / Cmax: geometric mean (geometric CV%); for Tmax: median (range)
Source text: The MAD cohorts also used a randomized, double-blind, placebo-controlled, sequential design. […] For all study groups, blood samples for PK assessment were obtained predose, up to 12 times daily on day 1, and then at regular intervals throughout the study (see Supplemental Appendix for details). Standard noncompartmental methods were used to calculate PK parameters using Phoenix WinNonlin, version 7.0; actual sample collection times were used. […] Steady-state analysis In the M AD cohort, a steady- state an alysis for […] erfo rmed o n the ln-transformed plasma trough concentrat ion (Ctrough) values using Helmert contrasts. An analysis of variance (ANOVA) model was co nducted separately fo r each dose level; day w as in cluded as the fix ed effect. Helmert contrasts were d eveloped su ch that each time- point was compared with the mean of the subsequent time-points. Steady state was established at the time-point where no statistical differen ce (alpha = 5%, 2 -sided) was obs […] the subsequent time-points. 5

[2] = SAD 50 mg (n = 11), […] postdose

Participants with reduction in LVEF to <50% (healthy adults; SAD 50 mg, 2 of 11, core laboratory): 18% | LVEF of the individual participants with LVEF <50% (healthy adults; SAD 50 mg, per core laboratory assessment): 48.2% and 45.5% | Participants with reduction in LVEF to <50% (healthy adults; SAD 75 mg, 1 of 1, core laboratory): 100% | LVEF of the participant (only participant with LVEF <45%) (healthy adults; SAD 75 mg, core laboratory): < 45% | Time for reversal of decreases in LVEF to <50% (healthy adults; following single doses): ≤ 6 h | Time for LVEF to return to baseline (healthy adults; participants whose LVEFs fell below 50%): ≤ 24 h | Time after dosing at which LVEF <50% was noted (healthy adults; single 50 or 75 mg): approximately 1.5 hours | Day by the end of which steady state was achieved ([1]; 5-mg dose once daily): 12 days | Day by the end of which steady state was achieved ([1]; 7.5-mg dose once daily): 12 days | Day by the end of which steady state was achieved ([1]; 10-mg dose once daily): 10 days | AUC ([1]; 5 mg, Day 1, 5 mg qd × 14 d, n = 6, read-out: AUC24): 278 ng·h/mL | Cmax ([1]; 5 mg, Day 1, 5 mg qd × 14 d, n = 6, read-out: Cmax): 28 ng/mL | Tmax ([1]; 5 mg, Day 1, 5 mg qd × 14 d, n = 6, read-out: Tmax): 1.3 h | half-life ([1]; 5 mg, Day 14, 5 mg qd × 14 d, arithmetic mean ± SD, n = 6, read-out: t½ (converted)): 86.4 ± 11.9 h | AUC ([1]; 5 mg, Day 14, 5 mg qd × 14 d, n = 6, read-out: AUCtau): 1320 ng·h/mL | Cmax ([1]; 5 mg, Day 14, 5 mg qd × 14 d, n = 6, read-out: Cmax,ss): 69 ng/mL | Tmax ([1]; 5 mg, Day 14, 5 mg qd × 14 d, n = 6, read-out: Tmax,ss): 2.8 h | AUC ([1]; 7.5 mg, Day 1, 7.5 mg qd × 17 d, n = 6, read-out: AUC24): 551 ng·h/mL | Cmax ([1]; 7.5 mg, Day 1, 7.5 mg qd × 17 d, n = 6, read-out: Cmax): 69.3 ng/mL | Tmax ([1]; 7.5 mg, Day 1, 7.5 mg qd × 17 d, n = 6, read-out: Tmax): 0.8 h | half-life ([1]; 7.5 mg, Day 17, 7.5 mg qd × 17 d, arithmetic mean ± SD, n = 6, read-out: t½ (converted)): 76.9 ± 14.5 h | AUC ([1]; 7.5 mg, Day 17, 7.5 mg qd × 17 d, n = 6, read-out: AUCtau): 2520 ng·h/mL | Cmax ([1]; 7.5 mg, Day 17, 7.5 mg qd × 17 d, n = 6, read-out: Cmax,ss): 148 ng/mL | Tmax ([1]; 7.5 mg, Day 17, 7.5 mg qd × 17 d, n = 6, read-out: Tmax,ss): 1 h | half-life ([1]; 10 mg, 5, 7.5, 10 mg once daily, read-out: Terminal elimination half-life, range across multiple-dose cohorts): 77 to 86 h | AUC ([1]; 10 mg, Day 1, 10 mg qd × 14 d, n = 6, read-out: AUC24): 547 ng·h/mL | Cmax ([1]; 10 mg, Day 1, 10 mg qd × 14 d, n = 6, read-out: Cmax): 54.4 ng/mL | Tmax ([1]; 10 mg, Day 1, 10 mg qd × 14 d, n = 6, read-out: Tmax): 1 h | half-life ([1]; 10 mg, Day 14, 10 mg qd × 14 d, arithmetic mean ± SD, n = 6, read-out: t½ (converted)): 79.8 ± 14.1 h | AUC ([1]; 10 mg, Day 14, 10 mg qd × 14 d, n = 6, read-out: AUCtau): 2630 ng·h/mL | Cmax ([1]; 10 mg, Day 14, 10 mg qd × 14 d, n = 6, read-out: Cmax,ss): 141 ng/mL | Tmax ([1]; 10 mg, Day 14, 10 mg qd × 14 d, n = 6, read-out: Tmax,ss): 2.5 h | Attainment of steady state ([1]; once-daily dosing): ≤ 2 weeks
Structure (SMILES): CCc1nc(-c2ccc3c(c2)CC[C@H]3NC(=O)c2cnn(C)c2)no1 [Aficamten]
Participants with absolute reduction in LVEF of ≥5% from baseline (healthy adults; SAD 1 mg): no participants | Participants with absolute reduction in LVEF of ≥5% from baseline (healthy adults; SAD 3 mg, 1 of 6): 17% | Participants with absolute reduction in LVEF of ≥5% from baseline (healthy adults; SAD 10 mg): no participants | Participants with absolute reduction in LVEF of ≥5% from baseline (healthy adults; SAD 25 mg): no participants | Participants with absolute reduction in LVEF of ≥10% (healthy adults; SAD 40 mg, 1 of 6): 17% | Participants with absolute reduction in LVEF of ≥5% from baseline (healthy adults; SAD 40 mg, 2 of 6): 33% | A (peak A wave velocity), mean (healthy adults; [2]): 54.5 cm/s | A (peak A wave velocity), mean change from baseline (healthy adults; [2]): 2.5 cm/s | E (peak E wave velocity), mean (healthy adults; [2]): 64.0 cm/s | E (peak E wave velocity), mean change from baseline (healthy adults; [2]): -2.7 cm/s | Heart rate, mean (healthy adults; [2]): 62.3 bpm | Heart rate, mean change from baseline (healthy adults; [2]): 0.5 bpm | IVCT, mean (healthy adults; [2]): 42.6 ms | IVCT, mean change from baseline (healthy adults; [2]): 0.4 ms | IVRT, mean (healthy adults; [2]): 69.3 ms | IVRT, mean change from baseline (healthy adults; [2]): 0.5 ms | LAV, mean (healthy adults; [2]): 35.7 mL | LAV, mean change from baseline (healthy adults; [2]): 0.0 mL | LV CO, mean (healthy adults; [2]): 3240 mL | LV CO, mean change from baseline (healthy adults; [2]): -346 mL | LV EDV, mean (healthy adults; [2]): 99.8 mL | LV EDV, mean change from baseline (healthy adults; [2]): 6.6 mL | LV ESV, mean (healthy adults; [2]): 39.7 mL | LV ESV, mean change from baseline (healthy adults; [2]): 8.1 mL | LV ET, mean (healthy adults; [2]): 328 ms | LV SV, mean (healthy adults; [2]): 52.6 mL | LV SV, mean change from baseline (healthy adults; [2]): -6.2 mL | LVEF, mean (healthy adults; [2]): 60.5% | LVEF, mean change from baseline (healthy adults; [2]): -5.8% | e' lateral, mean (healthy adults; [2]): 10.2 cm/s | e' lateral, mean change from baseline (healthy adults; [2]): -1.3 cm/s | Participants with absolute reduction in LVEF of ≥5% from baseline (healthy adults; SAD 50 mg, 7 of 11): 64% | Mean maximum reduction in LVEF from baseline (healthy adults; SAD 50 mg, […] postdose): 5.8% | Reduction in LVEF, placebo corrected least-squares mean difference (healthy adults; SAD 50 mg, […] postdose): 5.5% | Participants with absolute reduction in LVEF of ≥5% from baseline (healthy adults; SAD 75 mg, 1 of 1): 100% | Participants with absolute reduction in LVEF of ≥10% (healthy adults; SAD 75 mg, 1 participant): 100% | Relationship of LVEF to plasma concentration (healthy adults; SAD cohorts, highest concentration bin 122-524 ng/mL P < 0.001, concentration-slope analysis P = 0.003): statistically significant decrease
